Marks after values point to notes of the source that are not given here.
What was measured:
[1] = test system: S. aureus ATCC: 6538; assay: Bacterial count reduction test (method 1), S. aureus; format: cell-based, Staphylococcus aureus; conditions: o/w cream, initial bacterial count 1 × 10^9
Description: (§1) Method 1: Bacterial Count Reduction Test
(§2) The aim of this bacterial count reduction test is to determine suitable preservatives and reaction times for samples injected in the laboratory.
(§3) Staphylococcus aureus, Escherichia coli or Pseudomonas aeruginosa, Candida albicans, Aspergillus brasiliensis
(§4) From a 24-hour CS-angular agar culture (I subculture) of Staphylococcus aureus/Escherichia coli 24-hour CSL-cultures (II subculture) are created. The incubation is carried out at 37° C. The titer of the bacterial suspension is about 10^9 CFU/ml.
(§5) The titres of the respectively produced test organism suspensions are determined by means of a dilution series in physiological NaCl and recorded.
(§6) The samples are displaced with different concentrations of suitable preservatives. For each test bacterium a dilution series is required. The samples are injected individually with the respective test organism suspension and stirred well:
(§7) 25 g samples=0.1 ml bacterial suspension
(§8) 50 g samples=0.2 ml bacterial suspension.
(§9) After the indicated reaction times the samples are firstly stirred homogenously with a sterile glass rod and then spread onto CSA or SA agar. The bacteria samples are spread onto CSA and incubated for 48 hours at 37° C. The mould and yeast samples are spread onto SA agar and incubated for 48 hours at 37° C. (Candida albicans) and at 25° C. (Aspergillus brasiliensis).

[2] = test system: E. coli ATCC: 11229; assay: Bacterial count reduction test (method 1), E. coli; format: cell-based, Escherichia coli; conditions: o/w cream, initial bacterial count 1.3 × 10^9
Description: as §1, §2, §3, §4, §5, §6, §7, §8, §9

[3] = test system: C. albicans ATCC: 10231; assay: Bacterial count reduction test (method 1), C. albicans; format: cell-based, Candida albicans
Description: as §1, §2, §3
A 4 day old Candida albicans culture on SA-agar (II subculture) is washed with 5 ml physiological NaCl and adjusted according to a barium sulphate standard (cf. DVG Guidelines). The titer of the Candida albicans suspension is 10^8 CFU/ml.
as §5, §6, §7, §8, §9

[4] = test system: A. brasiliensis ATCC: 16404; assay: Bacterial count reduction test (method 1), A. brasiliensis; format: cell-based, Aspergillus brasiliensis
Description: as §1, §2, §3
A 7 to 14 days old Aspergillus brasiliensis culture on SA agar (25° C.±1° C.) is washed with 5 ml physiological NaCl, filtered by a glass funnel with glass wool and filled with physiological NaCl to 100 ml. The titre of the Aspergillus brasiliensis suspension is about 10^7 CFU/ml.
as §5, §6, §7, §8, §9

[5] = test system: Staphylococcus aureus, Escherichia coli or Pseudomonas aeruginosa, Candida albicans, Aspergillus brasiliensis; assay: Bacterial count reduction test (method 1), summary in words over the test organisms; format: cell-based; conditions: Example 3, Table 4; o/w-Lotion; concentration of 2%
Description: as §1, §2, §3, §6, §9

[6] = o/w cream, initial bacterial count 4.1 × 10^8
[7] = o/w-Lotion, initial bacterial count 5.4 × 10^8
[8] = o/w cream, initial bacterial count 1.5 × 10^7
[9] = o/w-Lotion, initial bacterial count 7.7 × 10^7

## COc1cc(/C=C/C(=O)O)ccc1O [0.1% ferulic acid, ferulic acid]
[1]; 24 h
  Growth of S. aureus ATCC: 6538 after 24 hours: R (Surface covered About 10^6)
[1]; 72 h
  Growth of S. aureus ATCC: 6538 after 72 hours: ++++ (Massive growth About 10^5)
[1]; 168 h
  Growth of S. aureus ATCC: 6538 after 168 hours: ++++ (Massive growth About 10^5)
[1]; 336 h
  Growth of S. aureus ATCC: 6538 after 336 hours: ++++ (Massive growth About 10^5)
[2]; 24 h
  Growth of E. coli ATCC: 11229 after 24 hours: ++++ (Massive growth About 10^5)
[2]; 72 h
  Growth of E. coli ATCC: 11229 after 72 hours: R (Surface covered About 10^6)
[2]; 168 h
  Growth of E. coli ATCC: 11229 after 168 hours: R (Surface covered About 10^6)
[2]; 336 h
  Growth of E. coli ATCC: 11229 after 336 hours: R (Surface covered About 10^6)
[3]; [6]
  Growth of C. albicans ATCC: 10231 after 24 hours: R (Surface covered About 10^6)
  Growth of C. albicans ATCC: 10231 after 72 hours: R (Surface covered About 10^6)
  Growth of C. albicans ATCC: 10231 after 168 hours: ++++ (Massive growth About 10^5)
  Growth of C. albicans ATCC: 10231 after 336 hours: ++++ (Massive growth About 10^5)
[3]; [7]
  Growth of C. albicans ATCC: 10231 after 24 hours: R (Surface covered About 10^6)
  Growth of C. albicans ATCC: 10231 after 72 hours: R (Surface covered About 10^6)
  Growth of C. albicans ATCC: 10231 after 168 hours: ++++ (Massive growth About 10^5)
  Growth of C. albicans ATCC: 10231 after 336 hours: ++++ (Massive growth About 10^5)
[4]; [8]
  Growth of A. brasiliensis ATCC: 16404 after 24 hours: ++++ (Massive growth About 10^5)
  Growth of A. brasiliensis ATCC: 16404 after 72 hours: ++++ (Massive growth About 10^5)
  Growth of A. brasiliensis ATCC: 16404 after 168 hours: ++++ (Massive growth About 10^5)
  Growth of A. brasiliensis ATCC: 16404 after 336 hours: ++++ (Massive growth About 10^5)
[4]; [9]
  Growth of A. brasiliensis ATCC: 16404 after 24 hours: ++++ (Massive growth About 10^5)
  Growth of A. brasiliensis ATCC: 16404 after 72 hours: ++++ (Massive growth About 10^5)
  Growth of A. brasiliensis ATCC: 16404 after 168 hours: ++++ (Massive growth About 10^5)
  Growth of A. brasiliensis ATCC: 16404 after 336 hours: ++++ (Massive growth About 10^5)
[5]
  Effectiveness in bacterial count reduction test, in words: inherent effectiveness
